Among the data in ChEMBL document CHEMBL4825760, “Interleukin-17A Peptide Aptamers with an Unexpected Binding Moiety Selected by cDNA Display under Heterogenous Conditions” (ACS Med Chem Lett, 2021) are Kd, Activity and metabolised values, retold here.

Data set [1] addresses T1, Interleukin-17A (Homo sapiens, UniProt Q16552).
T1 sequence (Q16552 whole entry): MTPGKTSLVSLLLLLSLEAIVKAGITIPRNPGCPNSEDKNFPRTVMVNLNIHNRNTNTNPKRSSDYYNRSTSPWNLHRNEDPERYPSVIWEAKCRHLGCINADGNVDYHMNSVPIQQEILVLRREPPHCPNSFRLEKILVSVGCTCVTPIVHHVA
Briefly: Binding affinity to human IL-17A assessed as dissociation constant in PBS-T measured after 60 mins by Biolayer interferometry. For orientation: In BLI a coated tip is dipped into the sample, and binding shifts an interference pattern.

For data set [2], the target named is T2, Interleukin-17F (Homo sapiens) (UniProt Q96PD4).
T2 sequence (whole entry): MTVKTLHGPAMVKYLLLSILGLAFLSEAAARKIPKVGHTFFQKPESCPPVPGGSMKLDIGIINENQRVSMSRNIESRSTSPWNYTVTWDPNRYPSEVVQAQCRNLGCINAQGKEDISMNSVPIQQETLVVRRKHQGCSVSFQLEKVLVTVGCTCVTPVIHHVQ
Briefly: Binding affinity to human IL-17F.

The target in data set [3] is T3, Interleukin-17A (Mus musculus) (UniProt Q62386).
T3 sequence (whole entry): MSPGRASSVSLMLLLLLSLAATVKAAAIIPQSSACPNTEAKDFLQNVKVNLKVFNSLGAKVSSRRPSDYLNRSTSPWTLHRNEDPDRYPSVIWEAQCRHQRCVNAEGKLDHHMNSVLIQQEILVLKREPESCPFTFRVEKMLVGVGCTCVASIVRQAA
The data set is described as follows: Binding affinity to mouse IL-17A.

A short description of data set [4]: Stability of the compound in 50% human serum assessed as compound decomposition incubated for 24 hrs by SDS-PAGE analysis.
Data set [5] has as its target T1, Interleukin-17A. Briefly: Binding affinity to biotinylated human IL-17A by SPR analysis. Background: Surface plasmon resonance follows binding to a sensor surface in real time, without labels.

Calls of active or inactive are those of the source. The calls are words filed in the database; no cut-off is given here. *1 amine or outer side, *2 acyl side, *3 side chain or, on linkers, in order; H or OH if unused. Where a SMILES comes first, the peptide text is derived from it. Bridges are numbered along the chain shown (N, C = ends). oXylylene = c1ccc(C[*:2])c(C[*:1])c1

As to `CC(C)C[C@H](NC(=O)[C@H](C)NC(=O)[C@@H](NC(=O)[C@H](CC(C)C)NC(=O)[C@H](CC(C)C)NC(=O)[C@H](CCC(=O)O)NC(=O)[C@@H](N)CS)[C@@H](C)O)C(=O)NCC(=O)N[C@@H](Cc1ccc(O)cc1)C(=O)N1CCC[C@H]1C(=O)N[C@H](C(=O)N[C@@H](Cc1ccc(O)cc1)C(=O)N[C@@H](CS)C(=O)O)C(C)C` (H-CELLTALGYPVYC-OH), at Interleukin-17A [1], the Kd result is “Not Active”.
As for `CC(C)C[C@H](NC(=O)[C@H](Cc1ccccc1)NC(=O)[C@@H](NC(=O)[C@H](CC(C)C)NC(=O)[C@H](CC(C)C)NC(=O)[C@H](CCC(=O)O)NC(=O)[C@@H](N)CS)[C@@H](C)O)C(=O)NCC(=O)N[C@@H](Cc1ccc(O)cc1)C(=O)N1CCC[C@H]1C(=O)N[C@H](C(=O)N[C@@H](Cc1ccc(O)cc1)C(=O)N[C@@H](CS)C(=O)O)C(C)C` (H-CELLTFLGYPVYC-OH), the result in data set [2] was inactive. Besides, in data set [3], the outcome was Active. The metabolised at 24 h in data set [4] is 9.5%.
As to `CC(C)C[C@@H]1NC(=O)[C@H](Cc2ccccc2)NC(=O)[C@H]([C@@H](C)O)NC(=O)[C@H](CC(C)C)NC(=O)[C@H](CC(C)C)NC(=O)[C@H](CCC(=O)O)NC(=O)[C@@H](N)CSCc2ccccc2CSC[C@@H](C(=O)O)NC(=O)[C@H](Cc2ccc(O)cc2)NC(=O)[C@H](C(C)C)NC(=O)[C@@H]2CCCN2C(=O)[C@H](Cc2ccc(O)cc2)NC(=O)CNC1=O` (H-CELLTFLGYPVYC-OH; linker 1-13 via oXylylene), in data set [4], the metabolised at 24 h came to 30.5%.
For `CC(C)C[C@@H]1NC(=O)[C@H](Cc2ccccc2)NC(=O)[C@H]([C@@H](C)O)NC(=O)[C@H](CC(C)C)NC(=O)[C@H](CC(C)C)NC(=O)[C@H](CCC(=O)O)NC(=O)[C@@H](NC(=O)[C@H](CO)NC(=O)CN)CSSC[C@@H](C(=O)NCC(=O)NCC(=O)NCC(=O)N[C@@H](CO)C(=O)N[C@@H](Cc2cnc[nH]2)C(=O)N[C@@H](Cc2cnc[nH]2)C(=O)N[C@@H](Cc2cnc[nH]2)C(=O)N[C@@H](Cc2cnc[nH]2)C(=O)N[C@@H](Cc2cnc[nH]2)C(=O)N[C@@H](Cc2cnc[nH]2)C(=O)O)NC(=O)[C@H](Cc2ccc(O)cc2)NC(=O)[C@H](C(C)C)NC(=O)[C@@H]2CCCN2C(=O)[C@H](Cc2ccc(O)cc2)NC(=O)CNC1=O` (H-GSCELLTFLGYPVYCGGGSHHHHHH-OH; disulfide 3-15), on Interleukin-17A [5], the Kd entry is on record as “Not Active”.
As for `CC(C)C[C@H](NC(=O)[C@H](CCC(=O)O)NC(=O)[C@@H](N)CS)C(=O)N[C@@H](CC(C)C)C(=O)N[C@H](C(=O)N[C@@H](Cc1ccccc1)C(=O)N[C@@H](C)C(=O)NCC(=O)N[C@@H](Cc1ccc(O)cc1)C(=O)N1CCC[C@H]1C(=O)N[C@H](C(=O)N[C@@H](Cc1ccc(O)cc1)C(=O)N[C@@H](CS)C(=O)O)C(C)C)[C@@H](C)O` (H-CELLTFAGYPVYC-OH), the Kd entry at Interleukin-17A [1] is reported as “Not Active”.
